In US20250296959A1, “B7-H3 TARGETING PEPTIDES AND CONSTRUCTS THEREOF” (Mariana Oncology Inc., priority 2024, published 2025):
pKd: −log10 of the molar value. Starred links: 1 amine or outer side, 2 acyl side, 3 side chain; linkers in the order of their positions; H or OH if unused. Positions of bridges follow the written chain, without caps; N, C: chain ends. Non-standard residues stand in square brackets, D forms with d. Residues, ends and D or L forms follow the SMILES beside them. Groups on a side chain read outwards from the residue. *: point of attachment. Ala(piperidin-4-yl) = O=C([C@H](CC1CCN([*:3])CC1)N[*:1])[*:2]; DOTA = O=C(O)CN1CCN(CC(=O)O)CCN(CC(=O)*)CCN(CC(=O)O)CC1; Phe(4-COOH) = N[C@@H](Cc1ccc(C(=O)O)cc1)C(=O)O; Trp(5-F) = N[C@@H](Cc1c[nH]c2ccc(F)cc12)C(=O)O; 1Nal = N[C@@H](Cc1cccc2ccccc12)C(=O)O; Ala(4-THP) = N[C@@H](CC1CCOCC1)C(=O)O; Val(3-OH) = CC(C)(O)[C@H](N)C(=O)O; 4Pal = N[C@@H](Cc1ccncc1)C(=O)O; Chg = N[C@H](C(=O)O)C1CCCCC1; PEG4 = NCCOCCOCCOCCOCCC(=O)O; Pen = CC(C)(S)[C@H](N)C(=O)O; Tle = CC(C)(C)[C@H](N)C(=O)O; hLeu = CC(C)CC[C@H](N)C(=O)O; Nle = CCCC[C@H](N)C(=O)O; Orn = NCCC[C@H](N)C(=O)O; AEA = NCCOCC(=O)O; Sar = CNCC(=O)O

target: T1, human 4lg B7-H3 (Homo sapiens, UniProt Q5ZPR3); test: Affinity determination by surface plasmon resonance (SPR) to 4Ig B7-H3; details: SPR KD—25° C., 4Ig B7-H3; 25° C. flow cell temperature
T1 sequence (Q5ZPR3 29-534): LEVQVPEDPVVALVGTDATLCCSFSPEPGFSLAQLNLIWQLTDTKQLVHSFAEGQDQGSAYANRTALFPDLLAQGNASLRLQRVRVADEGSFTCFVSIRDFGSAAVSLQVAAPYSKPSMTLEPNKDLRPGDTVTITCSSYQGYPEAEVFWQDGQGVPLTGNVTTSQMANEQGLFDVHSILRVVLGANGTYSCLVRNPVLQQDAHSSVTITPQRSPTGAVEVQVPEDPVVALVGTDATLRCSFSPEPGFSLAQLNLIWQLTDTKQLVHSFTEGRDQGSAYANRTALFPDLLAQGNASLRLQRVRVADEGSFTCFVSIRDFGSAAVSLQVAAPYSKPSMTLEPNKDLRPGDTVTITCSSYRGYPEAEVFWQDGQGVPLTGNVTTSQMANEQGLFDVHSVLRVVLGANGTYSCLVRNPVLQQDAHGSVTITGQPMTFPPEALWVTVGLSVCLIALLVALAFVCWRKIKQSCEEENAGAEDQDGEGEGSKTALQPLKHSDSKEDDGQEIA

| SMILES | pKd |
| --- | --- |
| CCCC[C@H](NC(C)=O)C(=O)N[C@@H](Cc1ccc(O)cc1)C(=O)N[C@H]1CSSC[C@@H](C(=O)N[C@@H](Cc2c[nH]c3ccccc23)C(=O)N[C@@H](Cc2ccccc2)C(=O)N[C@@H](CCCN)C(=O)N[C@H](CCCCNC(=O)CN2CCN(CC(=O)O)CCN(CC(=O)O)CCN(CC(=O)O)CC2)C(N)=O)NC(=O)[C@H](Cc2ccc(O)cc2)NC(=O)[C@H](C(C)C)NC(=O)[C@H](CC(=O)O)NC(=O)[C@H](Cc2ccc(O)cc2)NC(=O)[C@H](CCCCN)NC(=O)CNC(=O)[C@H](C(C)C)NC1=O [compound 87, Ac-Nle-Y-C-V-G-K-Y-D-V-Y-C-W-F-Orn-dLys(DOTA)-CONH2] (Ac-[Nle]YCVGKYDVYCWF[Orn][dK](DOTA)-NH2; disulfide 3-11) | 7.00 to 8.00 |
| CC(=O)N[C@@H](CCC(C)C)C(=O)N[C@@H](Cc1ccc(O)cc1)C(=O)N[C@@H]1C(=O)N[C@@H](C(C)C)C(=O)NCC(=O)N[C@@H](CCCCN)C(=O)N[C@@H](Cc2ccc(O)cc2)C(=O)N[C@@H](CC(=O)O)C(=O)N[C@@H](C(C)C)C(=O)N[C@@H](Cc2ccc(O)cc2)C(=O)N[C@H](C(=O)N[C@@H](Cc2c[nH]c3ccccc23)C(=O)N[C@@H](Cc2ccccc2)C(=O)N[C@H](C(=O)N[C@H](CCCCNC(=O)CN2CCN(CC(=O)O)CCN(CC(=O)O)CCN(CC(=O)O)CC2)C(N)=O)[C@@H](C)O)CSSC1(C)C [compound 117, Ac-hLeu-Y-Pen-V-G-K-Y-D-V-Y-C-W-F-Thr-dLys(DOTA)-CONH2] (Ac-[hLeu]Y[Pen]VGKYDVYCWFT[dK](DOTA)-NH2; disulfide 3-11) | 7.00 to 8.00 |
| CC(=O)N[C@@H](CCC(C)C)C(=O)N[C@@H](Cc1ccc(O)cc1)C(=O)N[C@H]1CSSC[C@@H](C(=O)N[C@@H](Cc2c[nH]c3ccc(F)cc23)C(=O)N[C@@H](Cc2ccccc2)C(=O)N[C@@H](C(=O)N[C@H](CCCCNC(=O)CN2CCN(CC(=O)O)CCN(CC(=O)O)CCN(CC(=O)O)CC2)C(N)=O)[C@H](C)O)NC(=O)[C@H](Cc2ccc(O)cc2)NC(=O)[C@H](C(C)C)NC(=O)[C@H](CC(=O)O)NC(=O)[C@H](Cc2ccc(O)cc2)NC(=O)[C@H](CCCCN)NC(=O)CNC(=O)[C@H](C(C)C)NC1=O [compound 163, Ac-hLeu-Y-C-V-G-K-Y-D-V-Y-C-5FW-F-dThr-dLys(DOTA)-CONH2] (Ac-[hLeu]YCVGKYDVYC[Trp(5-F)]F[dT][dK](DOTA)-NH2; disulfide 3-11) | 7.00 to 8.00 |
| CCCC[C@H](NC(C)=O)C(=O)N[C@@H](Cc1ccc(O)cc1)C(=O)N[C@H]1CSSC[C@@H](C(=O)N[C@@H](Cc2c[nH]c3ccc(F)cc23)C(=O)N[C@@H](Cc2ccccc2)C(=O)N[C@H](C(N)=O)[C@@H](C)O)NC(=O)[C@H](Cc2ccc(O)cc2)NC(=O)[C@H](C(C)C)NC(=O)[C@H](CC(=O)O)NC(=O)[C@H](Cc2ccc(O)cc2)NC(=O)[C@H](CCCCN)NC(=O)CNC(=O)[C@H](C(C)C)NC1=O [compound 59, Ac-Nle-Y-C-V-G-K-Y-D-V-Y-C-5FW-F-Thr-CONH2] (Ac-[Nle]YCVGKYDVYC[Trp(5-F)]FT-NH2; disulfide 3-11) | 8.00 to 9.00 |
| CC(=O)N[C@@H](CCC(C)C)C(=O)N[C@@H](Cc1ccc(O)cc1)C(=O)N[C@H]1CSSC[C@@H](C(=O)N[C@@H](Cc2cccc3ccccc23)C(=O)N[C@@H](Cc2ccccc2)C(=O)N2CCC[C@H]2C(=O)N[C@H](CCCCNC(=O)CN2CCN(CC(=O)O)CCN(CC(=O)O)CCN(CC(=O)O)CC2)C(N)=O)NC(=O)[C@H](Cc2ccc(O)cc2)NC(=O)[C@H](C(C)C)NC(=O)[C@H](CC(=O)O)NC(=O)[C@H](Cc2ccc(O)cc2)NC(=O)[C@H](CCCCN)NC(=O)CNC(=O)[C@H](C(C)C)NC1=O [compound 245, Ac-hLeu-Y-C-V-G-K-Y-D-V-Y-C-1Nal-F-Pro-dLys(DOTA)-CONH2] (Ac-[hLeu]YCVGKYDVYC[1Nal]FP[dK](DOTA)-NH2; disulfide 3-11) | 8.00 to 9.00 |
| CC(=O)N[C@@H](CCC(C)C)C(=O)N[C@@H](Cc1ccc(O)cc1)C(=O)N[C@H]1CSSC[C@@H](C(=O)N[C@@H](Cc2c[nH]c3ccc(F)cc23)C(=O)N[C@@H](Cc2ccccc2)C(=O)N2CCC[C@H]2C(=O)O)NC(=O)[C@H](Cc2ccc(O)cc2)NC(=O)[C@H](C(C)C)NC(=O)[C@H](CC(=O)O)NC(=O)[C@H](Cc2ccc(C(=O)O)cc2)NC(=O)[C@H](CCCCNC(=O)CN2CCN(CC(=O)O)CCN(CC(=O)O)CCN(CC(=O)O)CC2)NC(=O)CNC(=O)[C@H](C(C)C)NC1=O [compound 290, Ac-hLeu-Y-C-V-G-Lys(DOTA)-4COOHPhe-D-V-Y-C-5FW-F-Pro-COOH] (Ac-[hLeu]YCVGK(DOTA)[Phe(4-COOH)]DVYC[Trp(5-F)]FP-OH; disulfide 3-11) | 6.52 to 7.00 |
| CC(=O)N[C@@H](CCC(C)C)C(=O)N[C@@H](Cc1ccc(O)cc1)C(=O)N[C@H]1CSSC[C@@H](C(=O)N[C@@H](Cc2c[nH]c3ccc(F)cc23)C(=O)N[C@@H](Cc2ccccc2)C(=O)N[C@H](C(N)=O)C(C)(C)O)NC(=O)[C@H](Cc2ccc(O)cc2)NC(=O)[C@H](C(C)C)NC(=O)[C@H](CC(=O)O)NC(=O)[C@H](Cc2ccncc2)NC(=O)[C@H](CCCCNC(=O)CN2CCN(CC(=O)O)CCN(CC(=O)O)CCN(CC(=O)O)CC2)NC(=O)CNC(=O)[C@H](C(C)C)NC1=O [compound 229, Ac-hLeu-Y-C-V-G-Lys(DOTA)-4PyA-D-V-Y-C-5FW-F-hydroxyVal-CONH2] (Ac-[hLeu]YCVGK(DOTA)[4Pal]DVYC[Trp(5-F)]F[Val(3-OH)]-NH2; disulfide 3-11) | > 9.00 |
| CC(=O)N[C@@H](CCC(C)C)C(=O)N[C@@H](Cc1ccc(O)cc1)C(=O)N[C@H]1CSSC[C@@H](C(=O)N[C@@H](Cc2cccc3ccccc23)C(=O)N[C@@H](Cc2ccccc2)C(=O)N[C@H](C(=O)N[C@H](CCCCNC(=O)CN2CCN(CC(=O)O)CCN(CC(=O)O)CCN(CC(=O)O)CC2)C(N)=O)[C@@H](C)O)NC(=O)[C@H](Cc2ccc(O)cc2)NC(=O)[C@H](C2CCCCC2)NC(=O)[C@H](CC(=O)O)NC(=O)[C@H](Cc2ccc(O)cc2)NC(=O)[C@H](CCCCN)NC(=O)CNC(=O)[C@H](C(C)(C)C)NC1=O [compound 180, Ac-hLeu-Y-C-Tbg-G-K-Y-D-Chg-Y-C-1Nal-F-Thr-dLys(DOTA)-CONH2] (Ac-[hLeu]YC[Tle]GKYD[Chg]YC[1Nal]FT[dK](DOTA)-NH2; disulfide 3-11) | 8.00 to 9.00 |

same assay, conditions: SPR KD—37° C., 4Ig B7-H3; 37° C. flow cell temperature

| SMILES | pKd |
| --- | --- |
| CC(=O)N[C@@H](CCC(C)C)C(=O)N[C@@H](Cc1ccc(O)cc1)C(=O)N[C@H]1CSSC[C@@H](C(=O)N[C@@H](Cc2c[nH]c3ccc(F)cc23)C(=O)N[C@@H](Cc2ccccc2)C(=O)N[C@H](C(=O)N[C@H](CCCCNC(=O)CN2CCN(CC(=O)O)CCN(CC(=O)O)CCN(CC(=O)O)CC2)C(=O)O)C(C)(C)O)NC(=O)[C@H](Cc2ccc(O)cc2)NC(=O)[C@H](C(C)C)NC(=O)[C@H](CC(=O)O)NC(=O)[C@H](CC2CCOCC2)NC(=O)[C@H](CCCCN)NC(=O)CNC(=O)[C@H]([C@@H](C)O)NC1=O [compound 370, Ac-hLeu-Y-C-Thr-G-K-ThpA-D-V-Y-C-5FW-F-hydroxyVal-dLys(DOTA)-COOH] (Ac-[hLeu]YCTGK[Ala(4-THP)]DVYC[Trp(5-F)]F[Val(3-OH)][dK](DOTA)-OH; disulfide 3-11) | 8.00 to 9.00 |
| CC(=O)N[C@@H](CCC(C)C)C(=O)N[C@@H](Cc1ccc(O)cc1)C(=O)N[C@H]1CSSC[C@@H](C(=O)N[C@@H](Cc2c[nH]c3ccc(F)cc23)C(=O)N[C@@H](Cc2ccccc2)C(=O)N[C@H](C(=O)N[C@H](CCCCNC(=O)CN2CCN(CC(=O)O)CCN(CC(=O)O)CCN(CC(=O)O)CC2)C(=O)O)C(C)(C)O)NC(=O)[C@H](Cc2ccc(O)cc2)NC(=O)[C@H](C(C)C)NC(=O)[C@H](CC(=O)O)NC(=O)[C@H](CC2CCOCC2)NC(=O)[C@H](CCCCN)NC(=O)CN(C)C(=O)[C@H](C(C)C)NC1=O [compound 347, Ac-hLeu-Y-C-V-Sar-K-ThpA-D-V-Y-C-5FW-F-hydroxyVal-dLys(DOTA)-COOH] (Ac-[hLeu]YCV[Sar]K[Ala(4-THP)]DVYC[Trp(5-F)]F[Val(3-OH)][dK](DOTA)-OH; disulfide 3-11) | > 9.00 |
| CC(=O)N[C@@H](CCC(C)C)C(=O)N[C@@H](Cc1ccc(O)cc1)C(=O)N[C@H]1CSSC[C@@H](C(=O)N[C@@H](Cc2c[nH]c3ccc(F)cc23)C(=O)N[C@@H](Cc2ccccc2)C(=O)N[C@H](C(=O)N[C@H](CCC(=O)O)C(N)=O)C(C)(C)O)NC(=O)[C@H](Cc2ccc(O)cc2)NC(=O)[C@H](C(C)C)NC(=O)[C@H](CC(=O)O)NC(=O)[C@H](CC2CCOCC2)NC(=O)[C@H](CC2CCN(C(=O)CCOCCOCCOCCOCCNC(=O)CN3CCN(CC(=O)O)CCN(CC(=O)O)CCN(CC(=O)O)CC3)CC2)NC(=O)CNC(=O)[C@H](C(C)(C)C)NC1=O [compound 409, Ac-hLeu-Y-C-Tbg-G-Pip(PEG4-DOTA)Ala-ThpA-D-V-Y-C-5FW-F-hydroxyVal-dGlu-CONH2] (Ac-[hLeu]YC[Tle]G[Ala(piperidin-4-yl)]([PEG4-DOTA])[Ala(4-THP)]DVYC[Trp(5-F)]F[Val(3-OH)][dE]-NH2; disulfide 3-11) | 8.00 to 9.00 |
| CC(C)CC[C@H](NC(=O)COCCNC(=O)[C@H](CCC(=O)O)NC(=O)CN1CCN(CC(=O)O)CCN(CC(=O)O)CCN(CC(=O)O)CC1)C(=O)N[C@@H](Cc1ccc(O)cc1)C(=O)N[C@H]1CSSC[C@@H](C(=O)N[C@@H](Cc2c[nH]c3ccc(F)cc23)C(=O)N[C@@H](Cc2ccccc2)C(=O)N[C@H](C(N)=O)C(C)(C)O)NC(=O)[C@H](Cc2ccc(O)cc2)NC(=O)[C@H](C(C)C)NC(=O)[C@H](CC(=O)O)NC(=O)[C@H](CC2CCOCC2)NC(=O)[C@H](CCCCN)NC(=O)CNC(=O)[C@H](C(C)(C)C)NC1=O [compound 392, DOTA-Glu-AEA-hLeu-Y-C-Tbg-G-K-ThpA-D-V-Y-C-5FW-F-hydroxyVal-CONH2] ({DOTA}-E[AEA][hLeu]YC[Tle]GK[Ala(4-THP)]DVYC[Trp(5-F)]F[Val(3-OH)]-NH2; disulfide 5-13) | 8.00 to 9.00 |
